Target: Rho-associated protein kinase 2 (Homo sapiens, UniProt O75116)
Assay: Inhibition of ROCK2 (unknown origin) using FITC-AHA-AKRRRLSSLRA-OH substrate and ATP

Sequence of Rho-associated protein kinase 2 (O75116 whole entry): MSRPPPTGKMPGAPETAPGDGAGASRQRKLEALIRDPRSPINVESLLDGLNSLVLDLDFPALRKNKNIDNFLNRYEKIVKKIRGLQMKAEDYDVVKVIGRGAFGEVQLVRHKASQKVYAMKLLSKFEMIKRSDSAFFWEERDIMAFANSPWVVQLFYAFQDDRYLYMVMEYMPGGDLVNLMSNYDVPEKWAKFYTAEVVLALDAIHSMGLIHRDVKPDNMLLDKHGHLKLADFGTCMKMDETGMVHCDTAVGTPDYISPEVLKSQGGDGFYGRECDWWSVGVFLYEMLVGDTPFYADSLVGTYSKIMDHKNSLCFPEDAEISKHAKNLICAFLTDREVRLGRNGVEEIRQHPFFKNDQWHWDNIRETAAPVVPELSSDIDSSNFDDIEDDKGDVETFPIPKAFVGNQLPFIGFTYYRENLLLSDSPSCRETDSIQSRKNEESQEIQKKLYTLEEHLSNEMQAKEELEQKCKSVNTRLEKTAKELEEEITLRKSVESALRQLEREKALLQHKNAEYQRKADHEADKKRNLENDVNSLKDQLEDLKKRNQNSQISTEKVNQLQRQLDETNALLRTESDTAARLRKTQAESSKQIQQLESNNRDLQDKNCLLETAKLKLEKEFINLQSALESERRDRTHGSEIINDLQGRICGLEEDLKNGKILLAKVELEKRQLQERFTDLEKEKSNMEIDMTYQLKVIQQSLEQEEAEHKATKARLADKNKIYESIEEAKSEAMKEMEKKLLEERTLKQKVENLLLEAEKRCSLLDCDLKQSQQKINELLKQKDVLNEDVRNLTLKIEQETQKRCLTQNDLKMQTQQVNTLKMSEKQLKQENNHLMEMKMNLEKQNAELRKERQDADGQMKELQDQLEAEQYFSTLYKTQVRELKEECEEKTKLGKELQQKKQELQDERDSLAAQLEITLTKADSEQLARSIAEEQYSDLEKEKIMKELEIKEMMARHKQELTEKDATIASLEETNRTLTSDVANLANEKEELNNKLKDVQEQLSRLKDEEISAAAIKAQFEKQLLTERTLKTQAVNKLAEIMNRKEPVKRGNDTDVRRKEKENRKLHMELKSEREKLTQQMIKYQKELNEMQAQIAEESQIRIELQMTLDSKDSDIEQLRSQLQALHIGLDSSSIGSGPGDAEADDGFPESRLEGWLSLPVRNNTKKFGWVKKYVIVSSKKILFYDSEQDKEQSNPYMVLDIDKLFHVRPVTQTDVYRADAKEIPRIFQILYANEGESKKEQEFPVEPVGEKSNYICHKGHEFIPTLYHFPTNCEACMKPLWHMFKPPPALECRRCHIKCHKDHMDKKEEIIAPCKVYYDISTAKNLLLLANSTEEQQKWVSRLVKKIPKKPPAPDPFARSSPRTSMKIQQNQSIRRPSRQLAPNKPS

Structure (SMILES) | IC50 [µM]
COc1cnc(NC2CC3(C2)CC(Oc2ncccc2C(N)=O)C3)c2cc(Cl)ccc12 (stereo not given) | 0.015
COc1ccc2c(NC3CC4(C3)CC(Oc3ncccc3C(N)=O)C4)nccc2c1 (stereo not given) | 0.017
COc1ccc2ncnc(NC3CC4(C3)CC(Oc3ncccc3C(N)=O)C4)c2c1 (stereo not given) | 0.062
N#Cc1cnc(NC2CC3(C2)CC(Oc2ncccc2C(N)=O)C3)nc1 (stereo not given) | 1.51
NC(=O)c1cccnc1OC1CC2(CC(Nc3nc4c(Cl)cccc4s3)C2)C1 (stereo not given) | 0.076
